# Experimental data reported in ChEMBL document CHEMBL1147772, “The identification of potent and selective imidazole-based inhibitors of B-Raf kinase” (Bioorg Med Chem Lett, 2006).
# Tests used:
# [1] = target: T1, Serine/threonine-protein kinase B-raf (Homo sapiens, UniProt P15056)
# Description: Inhibition bRaf kinase activity
# [2] = target: T1, Serine/threonine-protein kinase B-raf; remark: listed apart in the source
# Description: Binding affinity at bRaf kinase in fluorescent ligand displacement assay
# [3] = target: Casein kinase II (Homo sapiens) (UniProt P67870+P68400+P19784); assay: Inhibition of CK2 activity at 10 uM; type: protein-complex assay
# [4] = target: Glycogen synthase kinase-3 beta (Homo sapiens) (UniProt P49841); assay: Inhibition of GSK3-beta activity at 10 uM
# [5] = target: Mitogen-activated protein kinase 8 (Homo sapiens) (UniProt P45983); assay: Inhibition of JNK1 activity at 10 uM
# [6] = target: Tyrosine-protein kinase Lck (Homo sapiens) (UniProt P06239); assay: Inhibition of Lck activity at 10 uM
# [7] = target: Mitogen-activated protein kinase 1 (Homo sapiens) (UniProt P28482); assay: Inhibition of MAPK2 activity at 10 uM
# [8] = target: MAP kinase-activated protein kinase 2 (Homo sapiens) (UniProt P49137); assay: Inhibition of MAPKAPK2 activity at 10 uM
# [9] = target: Dual specificity mitogen-activated protein kinase kinase 1 (Homo sapiens) (UniProt Q02750); assay: Inhibition of MEK1 activity at 10 uM
# [10] = target: Ribosomal protein S6 kinase alpha-5 (Homo sapiens) (UniProt O75582); assay: Inhibition of MSK1 activity at 10 uM
# [11] = target: Ribosomal protein S6 kinase (P70S6K) (Homo sapiens) (UniProt Q9UBS0+P23443); assay: Inhibition of p70S6K activity at 10 uM; type: protein-complex assay
# [12] = target: RAC-alpha serine/threonine-protein kinase (Homo sapiens) (UniProt P31749); assay: Inhibition of PKBalpha activity at 10 uM
# [13] = target: Phosphorylase kinase (Homo sapiens) (UniProt P15735+P46020+P46019+Q93100+Q16816); assay: Inhibition of phosphorylase kinase activity at 10 uM; type: protein-complex assay
# [14] = target: cAMP-dependent protein kinase (PKA) (Homo sapiens) (UniProt P22694+P17612+P22612); assay: Inhibition of PKA activity at 10 uM; type: protein assay
# [15] = target: Protein kinase C alpha type (Homo sapiens) (UniProt P17252); assay: Inhibition of PKCalpha activity at 10 uM
# [16] = target: MAP kinase-activated protein kinase 5 (Homo sapiens) (UniProt Q8IW41); assay: Inhibition of PRAK activity at 10 uM
# [17] = target: Rho-associated protein kinase 2 (Homo sapiens) (UniProt O75116); assay: Inhibition of ROCK2 activity at 10 uM
# [18] = target: Mitogen-activated protein kinase 11 (Homo sapiens) (UniProt Q15759); assay: Inhibition of p38-beta MAPK activity at 10 uM
# [19] = target: Mitogen-activated protein kinase 12 (Homo sapiens) (UniProt P53778); assay: Inhibition of p38-gamma MAPK activity at 10 uM
# [20] = target: Mitogen-activated protein kinase 13 (Homo sapiens) (UniProt O15264); assay: Inhibition of p38delta MAPK activity at 10 uM
# [21] = target: Serine/threonine-protein kinase Sgk1 (Homo sapiens) (UniProt O00141); assay: Inhibition of SGK activity at 10 uM
# [22] = target: AMP-activated protein kinase, AMPK (Homo sapiens) (UniProt P54646+O43741+P54619+Q9UGJ0+Q9Y478+Q13131+Q9UGI9); assay: Inhibition of AMPK activity at 10 uM; type: protein-complex assay
# [23] = target: Serine/threonine-protein kinase Chk1 (Homo sapiens) (UniProt O14757); assay: Inhibition of CHK1 activity at 10 uM
# T1 sequence (P15056 whole entry): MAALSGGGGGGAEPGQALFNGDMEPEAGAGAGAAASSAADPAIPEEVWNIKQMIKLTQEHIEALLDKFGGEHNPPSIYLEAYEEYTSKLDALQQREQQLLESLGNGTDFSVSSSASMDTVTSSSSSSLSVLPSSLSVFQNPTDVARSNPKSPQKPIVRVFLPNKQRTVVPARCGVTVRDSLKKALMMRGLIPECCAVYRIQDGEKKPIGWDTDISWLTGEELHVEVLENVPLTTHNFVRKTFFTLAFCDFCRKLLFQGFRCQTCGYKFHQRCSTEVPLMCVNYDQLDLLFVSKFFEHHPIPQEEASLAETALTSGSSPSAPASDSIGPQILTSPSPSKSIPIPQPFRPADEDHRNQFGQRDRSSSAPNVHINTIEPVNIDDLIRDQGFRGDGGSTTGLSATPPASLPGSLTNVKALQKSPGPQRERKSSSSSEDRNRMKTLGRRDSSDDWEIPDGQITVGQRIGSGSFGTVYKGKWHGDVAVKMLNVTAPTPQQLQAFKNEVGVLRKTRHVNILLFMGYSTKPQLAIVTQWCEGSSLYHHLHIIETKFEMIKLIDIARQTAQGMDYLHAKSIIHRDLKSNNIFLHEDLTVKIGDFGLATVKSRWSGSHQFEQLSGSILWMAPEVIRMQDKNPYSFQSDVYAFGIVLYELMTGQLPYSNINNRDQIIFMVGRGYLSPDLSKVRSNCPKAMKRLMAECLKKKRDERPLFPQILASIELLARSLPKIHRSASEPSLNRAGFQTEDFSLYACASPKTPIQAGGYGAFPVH
# Chain of MAP kinase-activated protein kinase 2 (Homo sapiens) (P49137 whole entry, looked up): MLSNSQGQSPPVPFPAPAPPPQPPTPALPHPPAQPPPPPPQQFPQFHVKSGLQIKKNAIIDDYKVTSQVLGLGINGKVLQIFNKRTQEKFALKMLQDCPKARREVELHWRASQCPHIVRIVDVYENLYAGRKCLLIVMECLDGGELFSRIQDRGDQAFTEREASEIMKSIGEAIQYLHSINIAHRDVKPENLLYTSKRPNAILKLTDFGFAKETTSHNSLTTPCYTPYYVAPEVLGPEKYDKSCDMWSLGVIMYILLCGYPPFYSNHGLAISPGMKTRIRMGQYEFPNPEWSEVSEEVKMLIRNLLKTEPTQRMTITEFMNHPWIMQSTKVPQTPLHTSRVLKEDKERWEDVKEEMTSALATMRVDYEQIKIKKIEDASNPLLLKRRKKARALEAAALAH
# Chain of Serine/threonine-protein kinase Sgk1 (Homo sapiens) (O00141 whole entry): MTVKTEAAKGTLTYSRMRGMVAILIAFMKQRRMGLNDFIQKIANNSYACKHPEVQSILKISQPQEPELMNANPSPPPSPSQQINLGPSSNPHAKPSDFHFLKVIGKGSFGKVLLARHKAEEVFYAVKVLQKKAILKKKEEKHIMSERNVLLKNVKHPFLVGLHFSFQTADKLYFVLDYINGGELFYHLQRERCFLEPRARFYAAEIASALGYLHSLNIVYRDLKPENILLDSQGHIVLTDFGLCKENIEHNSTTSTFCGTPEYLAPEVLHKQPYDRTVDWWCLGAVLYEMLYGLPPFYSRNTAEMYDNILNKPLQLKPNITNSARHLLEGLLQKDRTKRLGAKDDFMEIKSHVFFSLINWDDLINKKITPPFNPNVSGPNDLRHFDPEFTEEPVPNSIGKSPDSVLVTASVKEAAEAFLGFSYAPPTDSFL
# Chain of RAC-alpha serine/threonine-protein kinase (Homo sapiens) (P31749 whole entry): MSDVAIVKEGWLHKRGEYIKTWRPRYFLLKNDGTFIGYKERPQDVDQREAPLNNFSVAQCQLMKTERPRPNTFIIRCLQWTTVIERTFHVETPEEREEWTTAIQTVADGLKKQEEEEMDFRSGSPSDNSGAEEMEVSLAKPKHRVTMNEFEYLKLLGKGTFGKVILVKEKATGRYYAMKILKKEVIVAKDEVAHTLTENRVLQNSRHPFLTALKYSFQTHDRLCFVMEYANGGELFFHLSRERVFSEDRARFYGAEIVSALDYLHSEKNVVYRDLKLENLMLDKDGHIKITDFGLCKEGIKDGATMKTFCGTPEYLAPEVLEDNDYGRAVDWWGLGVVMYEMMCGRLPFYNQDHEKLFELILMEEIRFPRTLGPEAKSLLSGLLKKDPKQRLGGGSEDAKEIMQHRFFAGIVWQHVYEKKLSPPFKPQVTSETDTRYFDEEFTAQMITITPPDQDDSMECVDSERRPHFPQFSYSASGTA
# Chain of Ribosomal protein S6 kinase alpha-5 (Homo sapiens) (O75582 whole entry, looked up): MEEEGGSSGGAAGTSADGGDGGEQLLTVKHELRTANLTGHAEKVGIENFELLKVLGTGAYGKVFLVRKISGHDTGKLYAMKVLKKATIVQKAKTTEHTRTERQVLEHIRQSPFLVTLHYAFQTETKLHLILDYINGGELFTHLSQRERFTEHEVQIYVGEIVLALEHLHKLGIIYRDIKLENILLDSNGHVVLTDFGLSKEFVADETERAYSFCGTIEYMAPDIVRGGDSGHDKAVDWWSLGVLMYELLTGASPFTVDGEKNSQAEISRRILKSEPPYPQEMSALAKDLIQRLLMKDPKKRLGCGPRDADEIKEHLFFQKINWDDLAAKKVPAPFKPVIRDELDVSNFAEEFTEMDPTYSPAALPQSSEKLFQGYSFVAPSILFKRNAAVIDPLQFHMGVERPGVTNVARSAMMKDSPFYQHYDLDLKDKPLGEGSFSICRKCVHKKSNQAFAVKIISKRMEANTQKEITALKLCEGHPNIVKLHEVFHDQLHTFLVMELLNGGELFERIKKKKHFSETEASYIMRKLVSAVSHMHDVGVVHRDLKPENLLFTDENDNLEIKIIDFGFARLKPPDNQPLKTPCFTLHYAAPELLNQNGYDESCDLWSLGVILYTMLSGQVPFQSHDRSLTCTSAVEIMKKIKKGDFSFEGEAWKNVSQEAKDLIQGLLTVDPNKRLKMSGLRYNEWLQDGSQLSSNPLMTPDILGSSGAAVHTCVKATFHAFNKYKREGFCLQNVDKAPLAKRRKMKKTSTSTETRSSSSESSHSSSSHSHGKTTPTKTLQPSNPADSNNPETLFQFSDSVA
# Chain of Mitogen-activated protein kinase 11 (Homo sapiens) (Q15759 whole entry): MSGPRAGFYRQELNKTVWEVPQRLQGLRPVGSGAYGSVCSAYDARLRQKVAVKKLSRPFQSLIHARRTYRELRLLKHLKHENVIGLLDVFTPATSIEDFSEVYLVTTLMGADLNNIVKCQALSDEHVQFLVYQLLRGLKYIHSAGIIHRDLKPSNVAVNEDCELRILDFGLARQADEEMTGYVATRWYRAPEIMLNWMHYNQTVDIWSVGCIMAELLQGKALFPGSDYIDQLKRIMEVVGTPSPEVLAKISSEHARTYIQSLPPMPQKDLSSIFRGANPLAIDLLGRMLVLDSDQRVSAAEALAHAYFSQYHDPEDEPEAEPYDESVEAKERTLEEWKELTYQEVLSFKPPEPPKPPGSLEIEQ
# Chain of Tyrosine-protein kinase Lck (Homo sapiens) (P06239 2-509 limits assumed): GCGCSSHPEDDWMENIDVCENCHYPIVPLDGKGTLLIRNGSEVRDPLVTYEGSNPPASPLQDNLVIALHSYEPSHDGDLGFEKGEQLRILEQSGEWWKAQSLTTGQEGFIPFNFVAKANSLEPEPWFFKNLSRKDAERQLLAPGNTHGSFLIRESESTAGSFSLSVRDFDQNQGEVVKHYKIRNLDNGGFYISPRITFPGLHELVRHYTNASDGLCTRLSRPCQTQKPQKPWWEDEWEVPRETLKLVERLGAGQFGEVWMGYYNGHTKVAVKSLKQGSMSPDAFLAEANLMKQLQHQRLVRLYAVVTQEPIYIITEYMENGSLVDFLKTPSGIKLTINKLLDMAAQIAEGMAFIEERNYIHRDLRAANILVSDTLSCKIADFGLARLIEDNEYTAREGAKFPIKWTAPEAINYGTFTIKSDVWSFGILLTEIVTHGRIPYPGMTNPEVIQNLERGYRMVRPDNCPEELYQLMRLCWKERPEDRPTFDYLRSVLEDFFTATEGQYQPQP
# Chain of Glycogen synthase kinase-3 beta (Homo sapiens) (P49841 whole entry, looked up): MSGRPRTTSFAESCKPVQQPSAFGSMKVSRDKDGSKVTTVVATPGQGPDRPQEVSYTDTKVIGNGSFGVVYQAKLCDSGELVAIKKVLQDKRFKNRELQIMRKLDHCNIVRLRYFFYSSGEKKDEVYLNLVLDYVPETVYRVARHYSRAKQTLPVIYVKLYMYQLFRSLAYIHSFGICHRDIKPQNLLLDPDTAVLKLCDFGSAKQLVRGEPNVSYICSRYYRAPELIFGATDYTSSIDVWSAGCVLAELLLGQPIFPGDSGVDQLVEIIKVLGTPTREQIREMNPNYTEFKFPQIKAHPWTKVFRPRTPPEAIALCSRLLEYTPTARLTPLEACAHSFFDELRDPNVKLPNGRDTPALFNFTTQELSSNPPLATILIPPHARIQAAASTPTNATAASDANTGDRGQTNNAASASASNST
# Chain of Mitogen-activated protein kinase 1 (Homo sapiens) (P28482 whole entry): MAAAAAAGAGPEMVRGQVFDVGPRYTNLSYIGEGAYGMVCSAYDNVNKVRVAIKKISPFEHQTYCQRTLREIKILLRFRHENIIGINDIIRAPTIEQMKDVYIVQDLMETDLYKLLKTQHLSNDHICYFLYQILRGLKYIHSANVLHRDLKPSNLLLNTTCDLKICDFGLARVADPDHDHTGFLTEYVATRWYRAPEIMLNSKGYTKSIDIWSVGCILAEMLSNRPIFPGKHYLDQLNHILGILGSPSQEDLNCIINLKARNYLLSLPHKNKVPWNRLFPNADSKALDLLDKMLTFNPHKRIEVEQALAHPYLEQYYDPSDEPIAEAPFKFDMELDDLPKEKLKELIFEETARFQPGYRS
# Chain of Mitogen-activated protein kinase 8 (Homo sapiens) (P45983 whole entry): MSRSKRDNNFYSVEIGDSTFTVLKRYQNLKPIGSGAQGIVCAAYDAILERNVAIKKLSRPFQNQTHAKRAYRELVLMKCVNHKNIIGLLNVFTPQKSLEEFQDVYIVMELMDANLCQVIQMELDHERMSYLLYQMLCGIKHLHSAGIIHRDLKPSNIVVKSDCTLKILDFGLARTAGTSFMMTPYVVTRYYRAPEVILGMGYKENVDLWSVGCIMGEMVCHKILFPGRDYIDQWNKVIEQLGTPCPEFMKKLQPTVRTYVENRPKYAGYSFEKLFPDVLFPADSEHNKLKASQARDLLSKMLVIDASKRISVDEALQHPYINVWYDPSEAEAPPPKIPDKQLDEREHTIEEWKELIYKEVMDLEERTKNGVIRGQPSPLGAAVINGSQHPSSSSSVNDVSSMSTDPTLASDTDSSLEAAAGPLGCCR
smiles,measurement,setting,value
Oc1ccc(-c2nc(-c3ccccc3)[nH]c2-c2ccncc2)cc1,IC50,[1],339 nM
same,Kd,[2],316 nM
Oc1cc(-c2[nH]c(-c3ccccc3)nc2-c2ccccc2)ccc1Cl,Kd,[2],> 200 nM
OCc1ccc(-c2[nH]c(-c3ccccc3)nc2-c2ccncc2)cc1Cl,Kd,[2],132 nM
N=C(NO)c1ccc(-c2[nH]c(-c3ccccc3)nc2-c2ccncc2)cc1,Kd,[2],53 nM
Oc1cc(-c2[nH]c(-c3ccccc3)nc2-c2ccncn2)ccc1Cl,Kd,[2],14 nM
Oc1cccc(-c2nc(-c3ccccc3)[nH]c2-c2ccncc2)c1,Kd,[2],8 nM
C/C(=N\O)c1ccc(-c2[nH]c(-c3ccccc3)nc2-c2ccncc2)cc1,Kd,[2],11 nM
CC(C)(C)c1nc(-c2ccncc2)c(-c2ccc(F)cc2)[nH]1,IC50,[1],900 nM
Oc1cc(-c2[nH]c(-c3ccccc3)nc2-c2cccnc2)ccc1Cl,Kd,[2],> 200 nM
O/N=C/c1ccc(-c2[nH]c(-c3ccccc3)nc2-c2ccncc2)cc1Cl,Kd,[2],6 nM
COc1cccc(-c2nc(-c3ccccc3)[nH]c2-c2ccncc2)c1,Kd,[2],> 196 nM
O/N=C/c1ccc(-c2[nH]c(-c3ccccc3)nc2-c2ccncc2)cc1,Kd,[2],5 nM
OCc1cccc(-c2[nH]c(-c3ccccc3)nc2-c2ccncc2)c1,IC50,[1],1590 nM
same,Kd,[2],> 196 nM
O/N=C1/CCCc2cc(-c3[nH]c(-c4ccccc4)nc3-c3ccncc3)ccc21,Kd,[2],17 nM
CN(C)CCOc1ccc(-c2nc(-c3ccncc3)c(-c3ccc4c(c3)CC/C4=N\O)[nH]2)cc1,inhibition,[3],8%
same,inhibition,[4],25%
same,inhibition,[5],19%
same,inhibition,[6],39%
same,inhibition,[7],11%
same,inhibition,[8],9%
same,inhibition,[9],14%
same,inhibition,[10],38%
same,inhibition,[11],13%
same,inhibition,[12],8%
same,inhibition,[13],3%
same,inhibition,[14],-2%
same,inhibition,[15],10%
same,inhibition,[16],18%
same,inhibition,[17],26%
same,inhibition,[18],9%
same,inhibition,[19],10%
same,inhibition,[20],10%
same,inhibition,[21],17%
same,inhibition,[22],14%
same,inhibition,[23],9%
Oc1cc(-c2nc(-c3ccccc3)[nH]c2-c2ccncc2)ccc1Cl,inhibition,[3],-3%
same,inhibition,[4],83%
same,inhibition,[5],0%
same,inhibition,[6],88%
same,inhibition,[7],-3%
same,inhibition,[8],-1%
same,inhibition,[9],5%
same,inhibition,[10],7%
same,inhibition,[11],26%
same,inhibition,[12],44%
same,inhibition,[13],17%
same,inhibition,[14],12%
same,inhibition,[15],2%
same,inhibition,[16],19%
same,inhibition,[17],3%
same,inhibition,[18],81%
same,inhibition,[19],5%
same,inhibition,[21],2%
same,inhibition,[22],12%
same,inhibition,[23],1%
same,IC50,[1],10 nM
same,Kd,[2],2.4 nM
CC(C)(CN)c1nc(-c2ccc(Cl)c(O)c2)c(-c2ccncc2)[nH]1,IC50,[1],6 nM
same,Kd,[2],4.8 nM
Nc1nccc(-c2[nH]c(-c3ccccc3)nc2-c2ccc(Cl)c(O)c2)n1,Kd,[2],5.7 nM
OCc1ccc(-c2[nH]c(-c3ccccc3)nc2-c2ccncc2)cc1,Kd,[2],71 nM
Oc1cc(-c2[nH]cnc2-c2ccncc2)ccc1Cl,IC50,[1],33 nM
same,Kd,[2],39 nM
CC(C)(C)c1nc(-c2ccncc2)c(-c2ccc(Cl)c(O)c2)[nH]1,IC50,[1],12 nM
same,Kd,[2],2 nM
CC(C)(CNS(C)(=O)=O)c1nc(-c2ccc(Cl)c(O)c2)c(-c2ccncc2)[nH]1,IC50,[1],14 nM
same,Kd,[2],10 nM
Oc1cc(-c2[nH]c(-c3ccco3)nc2-c2ccncc2)ccc1Cl,IC50,[1],13 nM
same,Kd,[2],4.2 nM
CN(C)CCCNC(=O)c1nc(-c2ccncc2)c(-c2ccc(Cl)c(O)c2)[nH]1,IC50,[1],40 nM
same,Kd,[2],24 nM
CC(C)(CNC(=O)Nc1ccc(Cl)cc1)c1nc(-c2ccc(Cl)c(O)c2)c(-c2ccncc2)[nH]1,IC50,[1],13 nM
same,Kd,[2],21 nM
OCc1ccc(-c2[nH]c(-c3ccccc3)nc2-c2ccncc2)cc1O,Kd,[2],22 nM
O/N=C/c1ccc(-c2[nH]c(-c3ccccc3)nc2-c2ccncc2)cc1O,Kd,[2],27 nM
Oc1cc(-c2[nH]c(-c3cccnc3)nc2-c2ccncc2)ccc1Cl,IC50,[1],6 nM
OC1CCc2cc(-c3[nH]c(-c4ccccc4)nc3-c3ccncc3)ccc21 (stereo not given),Kd,[2],> 200 nM
Oc1cc(-c2[nH]c(-c3ccccc3)nc2-c2ccnnc2)ccc1Cl,Kd,[2],87 nM
